Data as given in patent US9273058B2 (BRISTOL-MYERS SQUIBB COMPANY, priority 2013, dated 2016).

Tests used:
CK1δ = CK1δ (Homo sapiens, UniProt P48730); assay: CK1δ kinase assay (Caliper LabChip electrophoretic separation of fluoresceinated peptide substrate and product); type: biochemical; conditions: 200 pM CK1δ, 50 μM ATP, 1.5 μM peptide, 22 hours at room temperature; read-out: CK1δ IC50 range
In short: (§1)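 Compounds, taken from 10 mM DMSO stocks, are titrated at eleven concentrations. Kinase reactions proceed for 22 hours at room temperature and are quenched with EDTA. Substrate and product are resolved electrophoretically, and IC50 values are fitted by non-linear regression.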

CK1ε = CK1ε (Homo sapiens, UniProt P49674); assay: CK1ε kinase assay (Caliper LabChip electrophoretic separation of fluoresceinated peptide substrate and product); type: biochemical; conditions: 200 pM CK1ε, 50 μM ATP, 1.5 μM peptide, 22 hours at room temperature; read-out: CK1ε IC50 range
In short: as §1

Sequence of CK1δ (P48730 whole entry): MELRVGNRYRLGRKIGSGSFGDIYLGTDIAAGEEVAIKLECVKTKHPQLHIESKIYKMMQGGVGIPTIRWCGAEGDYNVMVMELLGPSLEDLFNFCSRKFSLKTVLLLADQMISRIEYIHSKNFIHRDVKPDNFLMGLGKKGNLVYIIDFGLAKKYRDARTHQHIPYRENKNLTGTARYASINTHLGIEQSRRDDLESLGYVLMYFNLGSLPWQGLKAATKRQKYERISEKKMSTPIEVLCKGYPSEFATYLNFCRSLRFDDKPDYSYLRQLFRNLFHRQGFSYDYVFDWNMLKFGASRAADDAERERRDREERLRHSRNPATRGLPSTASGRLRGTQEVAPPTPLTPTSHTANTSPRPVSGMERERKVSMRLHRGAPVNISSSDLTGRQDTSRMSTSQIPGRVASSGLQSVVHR
Sequence of CK1ε (P49674 whole entry): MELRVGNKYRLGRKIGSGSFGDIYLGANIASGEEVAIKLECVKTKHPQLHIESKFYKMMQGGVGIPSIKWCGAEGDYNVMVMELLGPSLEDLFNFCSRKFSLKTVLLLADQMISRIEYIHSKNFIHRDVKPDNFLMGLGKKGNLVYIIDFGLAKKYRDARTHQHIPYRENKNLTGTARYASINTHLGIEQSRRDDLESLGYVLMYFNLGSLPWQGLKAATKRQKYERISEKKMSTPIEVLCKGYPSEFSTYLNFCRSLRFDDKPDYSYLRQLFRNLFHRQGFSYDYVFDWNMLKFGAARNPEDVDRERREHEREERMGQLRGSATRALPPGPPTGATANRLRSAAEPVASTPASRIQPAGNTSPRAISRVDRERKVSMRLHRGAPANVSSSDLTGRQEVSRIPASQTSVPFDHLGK

| SMILES | IC50 (CK1δ) [nM] | IC50 (CK1ε) [nM] |
| --- | --- | --- |
| CC1(C)C2CCC1(NC(=O)N1CCn3nc(-c4ccc(F)c(Cl)c4)c(C(N)=O)c3C1)CC2F (stereo not drawn) [Compound A67, 2-(3-Chloro-4-fluorophenyl)-N^5-(3-fluoro-7,7-dimethylbicyclo[2.2.1]heptan-1-yl)-6,7-dihydropyrazolo[1,5-a]pyrazine-3,5(4H)-dicarboxamide] | 0.01 to 10 | 0.01 to 10 |
| CC12CC3CC(C)(C1)CC(NC(=O)N1CCn4nc(-c5ccc(F)c(Cl)c5)c(C(N)=O)c4C1)(C3)C2 [Compound A68, 2-(3-Chloro-4-fluorophenyl)-N^5-((1r,3R,5S,7r)-3,5-dimethyladamantan-1-yl)-6,7-dihydropyrazolo[1,5-a]pyrazine-3,5(4H)-dicarboxamide] | 0.01 to 10 | 0.01 to 10 |
| C[C@@]12C[C@H]3C[C@@](Cl)(C1)C[C@](NC(=O)N1CCn4nc(-c5ccc(F)c(Cl)c5)c(C(N)=O)c4C1)(C3)C2 [Compound A69, 2-(3-Chloro-4-fluorophenyl)-N^5-((1S,3R,5S,7R)-3-chloro-5-methyladamantan-1-yl)-6,7-dihydropyrazolo[1,5-a]pyrazine-3,5(4H)-dicarboxamide] | 0.01 to 10 | 0.01 to 10 |
| COC12CCC(NC(=O)N3CCn4nc(-c5cccc(Cl)c5)c(C(N)=O)c4C3)(CC1)C(=O)C2 [Compound A76, 2-(3-Chlorophenyl)-N^5-(4-methoxy-2-oxobicyclo[2.2.2]octan-1-yl)-6,7-dihydropyrazolo[1,5-a]pyrazine-3,5(4H)-dicarboxamide] | 0.01 to 10 | 0.01 to 10 |
| NC(=O)c1c(-c2cccc(Cl)c2)nn2c1CN(C(=O)NC13CCC(C(F)F)(CC1)CC3)CC2 [Compound A77, 2-(3-Chlorophenyl)-N^5-(4-(difluoromethyl)bicyclo[2.2.2]octan-1-yl)-6,7-dihydropyrazolo[1,5-a]pyrazine-3,5(4H)-dicarboxamide] | 0.01 to 10 | 0.01 to 10 |
| NC(=O)c1c(-c2cccc(Cl)c2)nn2c1CN(C(=O)NC13CCC(CF)(CC1)CC3)CC2 [Compound A78, 2-(3-Chlorophenyl)-N^5-(4-(fluoromethyl)bicyclo[2.2.2]octan-1-yl)-6,7-dihydropyrazolo[1,5-a]pyrazine-3,5(4H)-dicarboxamide] | 0.01 to 10 | 0.01 to 10 |
| NC(=O)c1c(-c2cccc(Cl)c2)nn2c1CN(C(=O)NC13CCC(CC1)CC3)CC2 [Compound A79, N^5-(Bicyclo[2.2.2]octan-1-yl)-2-(3-chlorophenyl)-6,7-dihydropyrazolo[1,5-a]pyrazine-3,5(4H)-dicarboxamide] | 0.01 to 10 | 0.01 to 10 |
| COC12CCC(NC(=O)N3CCn4nc(-c5cccc(Cl)c5)c(C(N)=O)c4C3)(CC1)CC2 [Compound A80, 2-(3-Chlorophenyl)-N^5-(4-methoxybicyclo[2.2.2]octan-1-yl)-6,7-dihydropyrazolo[1,5-a]pyrazine-3,5(4H)-dicarboxamide] | 0.01 to 10 | 0.01 to 10 |
| COC12CCC(NC(=O)N3CCn4nc(-c5cccc(Cl)c5)c(C(N)=O)c4C3)(CC1)C(F)(F)C2 [Compound A81, 2-(3-Chlorophenyl)-N^5-(2,2-difluoro-4-methoxybicyclo[2.2.2]octan-1-yl)-6,7-dihydropyrazolo[1,5-a]pyrazine-3,5(4H)-dicarboxamide] | 0.01 to 10 | 0.01 to 10 |
| COC12CCC(NC(=O)N3CCn4nc(-c5cccc(Cl)c5)c(C(N)=O)c4C3)(CC1)C2 [Compound A82, 2-(3-Chlorophenyl)-N^5-(4-methoxybicyclo[2.2.1]heptan-1-yl)-6,7-dihydropyrazolo[1,5-a]pyrazine-3,5(4H)-dicarboxamide] | 0.01 to 10 | 0.01 to 10 |
| NC(=O)c1c(-c2cccc(Cl)c2)nn2c1CN(C(=O)NC13CCC(c4ccccc4)(CC1)CC3)CC2 [Compound A83, 2-(3-Chlorophenyl)-N^5-(4-phenylbicyclo[2.2.2]octan-1-yl)-6,7-dihydropyrazolo[1,5-a]pyrazine-3,5(4H)-dicarboxamide] | 0.01 to 10 | 0.01 to 10 |
| NC(=O)c1c(-c2cccc(Cl)c2)nn2c1CN(C(=O)NC13CCCC(CCC1)C3)CC2 [Compound A84, N^5-((1r,5r)-Bicyclo[3.3.1]nonan-1-yl)-2-(3-chlorophenyl)-6,7-dihydropyrazolo[1,5-a]pyrazine-3,5(4H)-dicarboxamide] | 0.01 to 10 | 0.01 to 10 |
| CC12CC3(C)CC(C)(C1)CC(NC(=O)N1CCn4nc(-c5cccc(Cl)c5)c(C(N)=O)c4C1)(C2)C3 [Compound A85, 2-(3-Chlorophenyl)-N^5-((3s,5s,7s)-3,5,7-trimethyladamantan-1-yl)-6,7-dihydropyrazolo[1,5-a]pyrazine-3,5(4H)-dicarboxamide] | 0.01 to 10 | 0.01 to 10 |

Further lines, results first:

| IC50 (CK1δ) [nM] | IC50 (CK1ε) [nM] | SMILES |
| --- | --- | --- |
| 0.01 to 10 | 0.01 to 10 | NC(=O)c1c(-c2cccc(Cl)c2)nn2c1CN(C(=O)NC13C4C5C6C4C1C6C53)CC2 (stereo not drawn) [Compound A86, N^5-(Cuban-1-yl)-2-(3-chlorophenyl)-6,7-dihydropyrazolo[1,5-a]pyrazine-3,5(4H)-dicarboxamide] |
| 0.01 to 10 | 0.01 to 10 | N#CC12C3C4C1C1C2C3C41NC(=O)N1CCn2nc(-c3cccc(Cl)c3)c(C(N)=O)c2C1 (stereo not drawn) [Compound A87, N^5-(4-Cyanocuban-1-yl)-2-(3-chlorophenyl)-6,7-dihydropyrazolo[1,5-a]pyrazine-3,5(4H)-dicarboxamide] |
| 0.01 to 10 | 0.01 to 10 | NC(=O)c1c(-c2cccc(Cl)c2)nn2c1CN(C(=O)NC13C4C5C1C1C3C4C51F)CC2 (stereo not drawn) [Compound A88, N^5-(4-Fluorocuban-1-yl)-2-(3-chlorophenyl)-6,7-dihydropyrazolo[1,5-a]pyrazine-3,5(4H)-dicarboxamide] |
| 0.01 to 10 | 0.01 to 10 | NC(=O)c1c(-c2ccc(Cl)c(Cl)c2)nn2c1CN(C(=O)NC13CCC(c4ccc(F)cc4)(CC1)CC3)CC2 [Compound A89, 2-(3,4-Dichlorophenyl)-N^5-(4-(4-fluorophenyl)bicyclo[2.2.2]octan-1-yl)-6,7-dihydropyrazolo[1,5-a]pyrazine-3,5(4H)-dicarboxamide] |
| 0.01 to 10 | 0.01 to 10 | N#Cc1ccc(C23CCC(NC(=O)N4CCn5nc(-c6ccc(Cl)c(Cl)c6)c(C(N)=O)c5C4)(CC2)CC3)cc1 [Compound A90, N^5-(4-(4-Cyanophenyl)bicyclo[2.2.2]octan-1-yl)-2-(3,4-dichlorophenyl)-6,7-dihydropyrazolo[1,5-a]pyrazine-3,5(4H)-dicarboxamide] |
| 0.01 to 10 | 0.01 to 10 | CC12CC3(C)CC(C)(C1)CC(NC(=O)N1CCn4nc(-c5ccc(Cl)c(Cl)c5)c(C(N)=O)c4C1)(C2)C3 [Compound A91, 2-(3,4-Dichlorophenyl)-N^5-((3s,5s,7s)-3,5,7-trimethyladamantan-1-yl)-6,7-dihydropyrazolo[1,5-a]pyrazine-3,5(4H)-dicarboxamide] |
| 0.01 to 10 | 0.01 to 10 | CC12CC3CC(C)(C1)CC(NC(=O)N1CCn4nc(-c5ccc(Cl)c(Cl)c5)c(C(N)=O)c4C1)(C3)C2 [Compound A92, 2-(3,4-Dichlorophenyl)-N^5-((1r,3R,5S,7r)-3,5-dimethyladamantan-1-yl)-6,7-dihydropyrazolo[1,5-a]pyrazine-3,5(4H)-dicarboxamide] |
| 0.01 to 10 | 0.01 to 10 | C[C@@]12C[C@H]3C[C@@](Cl)(C1)C[C@](NC(=O)N1CCn4nc(-c5ccc(Cl)c(Cl)c5)c(C(N)=O)c4C1)(C3)C2 [Compound A93, N^5-((1S,3R,5S,7R)-3-Chloro-5-methyladamantan-1-yl)-2-(3,4-dichlorophenyl)-6,7-dihydropyrazolo[1,5-a]pyrazine-3,5(4H)-dicarboxamide] |
| 0.01 to 10 | 0.01 to 10 | NC(=O)c1c(-c2cccc(F)c2)nn2c1CN(C(=O)NC13CCC(C(F)F)(CC1)CC3)CC2 [Compound A94, N^5-(4-(Difluoromethyl)bicyclo[2.2.2]octan-1-yl)-2-(3-fluorophenyl)-6,7-dihydropyrazolo[1,5-a]pyrazine-3,5(4H)-dicarboxamide] |
| 0.01 to 10 | 10 to 100 | NC(=O)c1c(-c2cccc(F)c2)nn2c1CN(C(=O)NC(CF)(CF)CF)CC2 [Compound A95, N^5-(1,3-Difluoro-2-(fluoromethyl)propan-2-yl)-2-(3-fluorophenyl)-6,7-dihydropyrazolo[1,5-a]pyrazine-3,5(4H)-dicarboxamide] |
| 0.01 to 10 | 0.01 to 10 | NC(=O)c1c(-c2ccc(F)c(Cl)c2)nn2c1CN(C(=O)NC1CC(F)(F)C1)C[C@@H]2CF [Compound A114, (R)-2-(3-Chloro-4-fluorophenyl)-N^5-(3,3-difluorocyclobutyl)-7-(fluoromethyl)-6,7-dihydropyrazolo[1,5-a]pyrazine-3,5(4H)-dicarboxamide] |
| 0.01 to 10 | 0.01 to 10 | C[C@H]1CN(C(=O)NC2CC(F)(F)C2)Cc2c(C(N)=O)c(-c3ccc(F)c(Cl)c3)nn21 [Compound A115, (S)-2-(3-Chloro-4-fluorophenyl)-N^5-(3,3-difluorocyclobutyl)-7-methyl-6,7-dihydropyrazolo[1,5-a]pyrazine-3,5(4H)-dicarboxamide] |
| 0.01 to 10 | 0.01 to 10 | NC(=O)c1c(-c2ccc(F)c(Cl)c2)nn2c1CN(C(=O)NC1CC(F)(F)C1)C[C@@H]2CO [Compound A116, (R)-2-(3-Chloro-4-fluorophenyl)-N^5-(3,3-difluorocyclobutyl)-7-(hydroxymethyl)-6,7-dihydropyrazolo[1,5-a]pyrazine-3,5(4H)-dicarboxamide] |
| 0.01 to 10 | 0.01 to 10 | CC(C)(C)NC(=O)N1Cc2c(C(N)=O)c(-c3ccc(F)c(Cl)c3)nn2C(C(C)(C)C)C1 (stereo not drawn) [Compound A118, N^5-7-Di-tert-butyl-2-(3-chloro-4-fluorophenyl)-6,7-dihydropyrazolo[1,5-a]pyrazine-3,5(4H)-dicarboxamide] |
